Read-outs that look alike come from different tables or passages of the source. Ends that are not written are not given here. * marks the point of attachment. Biotin = O=C1N[C@H]2[C@H](CS[C@H]2CCCCC(=O)*)N1
Columns and labels:
chicken aortic rings = assay: Aortic ring assay (chicken aortic rings in Matrigel, microvessel formation); format: cell-based; details: peptide 125 to 1000 μM, 2-3 days
Description: The aortic ring assay is a widely used in vitro assay for angiogenesis. Typically, rat aortas are sliced crosswise and placed in Matrigel. After three to five days, microvessel sprouting can be roughly quantified by manual counting or by using image analysis. The aortic ring assay is low-cost, easy to use, and offers many assays from a single animal. A relatively new variant uses embryonic chick aortic arches (see Muthukkaruppan et al., Proceedings of the American Association for Cancer Research Annual Meeting, 2000).
In this experiment, chicken aortic rings are embedded in Matrigel (BD BioCoat™ Matrigel™ or other equivalent products) in optimized MCDB-131 media (Sigma product number: M8537, or equivalent products from other vendors). From endothelial cells (EC) in the aortic intima, a complex network of branching and anastomosing microvessels develop interspersed with fibroblast as individual cells. In this assay the ability of the identified EC-binding peptides is tested for their abilities to inhibit EC branching and microvessel formation.
Chicken aortic branches were dissected and cleaned from 15 day old chicken embryos, and were then rinsed well in cold PBS+Penicillin/Streptomycin (P/S) buffers. The arteries were then cut into about 1 mm rings using sterile razor blade, and the resulting rings were mounted in 10-20 μl of Matrigel (in a 48-well plate). Subsequently, 300 μl of MCDB-131 basal media+P/S containing the indicated amount of test peptide were added. The cultured rings were incubated at 37° C., with 5% CO2 for 2-3 days, and the extent of microvessel formation were evaluated as the end of the experiment.

[1] = system: angiogenesis in Matrigel plug; assay: Mouse Matrigel plug assay (FGF-induced angiogenesis, hemoglobin content); format: in vivo; details: for inhibition of angiogenesis in the Matrigel plug assay (in words) / inhibition of angiogenesis: mouse Matrigel plug with FGF; for inhibition of angiogenesis: peptide in the plug versus FGF-only control plug, hemoglobin levels
Procedure: This assay takes advantage of the fact that Matrigel is liquid at 4° C. but becomes gel when warmed to 37° C. Thus when injected subcutaneously into the ventral region of a mouse, Matrigel solidifies and forms a so-called “Matrigel plug”. When angiogenic factors, such as FGF, are mixed with the Matrigel and injected, endothelial cells migrate into the gel plug and form functional vessels. The level of angiogenesis can then be assessed by measuring hemoglobin levels in the plugs, which are directly proportional to the extent of angiogenesis. Typically, two plugs are assayed in each mouse: one plug (control plug) contains FGF only and is used as control for angiogenesis, while the test plug contains FGF and an indicated amount of test peptide(s). In single-point assays, peptide concentration in the plug is 1 mM.
C57BL/6 female mice, 6-8 wks.
Basis FGF (bFGF) stock was prepared at 25 μg/ml in saline buffer +5% mouse serum albumin. The bFGF stock was added to Matrigel at 200 ng/ml. The mixture was left on ice for at least 3 hours before further use. For each mouse, 1 ml of such mixture was prepared, so that 0.5 ml of the mixture can be injected into each mouse to achieve about 100 ng/one side injection. If a test peptide were also to be added, for each mouse, 50 μl of 10 mM peptide (or 5 mM cRGD, positive control) was slowly added to Matrigel, swirling while adding. Per 5 mice, add 300 μl of peptide per 3 mls of Matrigel.
Syringes for injection were left on ice before injection. One syringe is used for each side of the group of 5 mice. About 1 ml of the mixture can be loaded at a time and injected into 2 mice using the Becton Dickinson 1 ml syringe for subcutaneous injection (26 gauge, ⅝ths, cat# 309597). Mice were anesthetized with isofluorane in a chamber, and were pulled out just as their breathing became slow. Injection were performed subcutaneously at inner thighs of the mice.
To determined the degree of angiogenesis, Matrigel plugs were dissected out, and placed in pre-weighed Falcon 5 ml snap-cap round bottomed tubes (polypropylene, Falcon cat# 352063). One ml of PBS was then added. The tubes were weighed with Matrigel plugs inside. The samples were kept at 4° C. until ready for hemoglobin assay.
Sonicate samples before measuring the hemoglobin content using the Plasma hemoglobin kit from Sigma.

[2] = system: aortic smooth muscle cells (AoSMC)
Description: (§1) We developed a cell-based saturation ligand binding assay to measure the specific binding of the isolated EC binding peptides to human microvascular endothelial cells (HMVEC) and aortic smooth muscle cells (AoSMC). This assay allows the determination of the relative binding affinities of the isolated EC binding peptides. The assay is based on the highly sensitive fluorescence enhancement technique DELFIA® and coated microtitration plates. In this assay the synthetic peptides labeled with biotin at their amino terminus are incubated with fixed target cells in microtiter plate format. After incubation, the excess, unbound peptides are removed and europium labeled streptavidin added to the plates. After the removal of excess streptavidin, the europium is released and its fluorescence is measured.
(§2) Saturation ligand binding experiments measure specific ligand binding at equilibrium at various concentrations of the ligand. Binding curves are analyzed to determine binding site or receptor number and affinity. This curve is known as a rectangular hyperbola, binding isotherm, or saturation binding curve. This curve is determined by the following equation: […]
(§3) Y is zero initially, and increases to a maximum plateau value, Bmax. This equation describes the equilibrium binding of a ligand to a receptor as a function of increasing ligand concentration. X is the concentration of the ligand, and Y is the specific binding. Kd is the equilibrium dissociation constant, expressed in the same units as the X-axis (concentration). When the drug concentration equals Kd, half the binding sites are occupied at equilibrium.
(§4) Streptavidin-Eu^3+ reagent (cat # 1244-105), reagent diluent (cat # 1244-111), and Enhancement Solution (cat # 1244-105) were purchased from Perkin Elmer-Wallac (Turku, Finland), and the plates were read on Wallac Victor counter. The binding constants were calculated using the method of nonlinear regression analysis with the Prizm software (GraphPad Software, Inc.).
(§5) The HMVEC (human microvascular endothelial cell) and aortic smooth muscle cells (AoSMC) cells were purchased from Clonetics (San Diego, Calif.) and maintained according to the specifications of the supplier. In these experiments the cultures were used from passages 5 and 6 only.
(§6) The cultured subconfluent cells were trypsinized and resuspended in the culture media according to Clonetics instructions. The diluted suspension was dispensed into a reagent reservoir with magnetic stirring bar. 50 μl of the cell suspension was dispensed into each well of the 96-well plate with the Multidrop while stirring the suspension. The seeding density was 5*10^3 cells/well. The plates are incubated at 37° C. in the atmosphere containing 5% CO2 for 48 hours.
(§7) The cells were then washed three times with TBS with 0.01%Tween20 (wash buffer) and fixed with 2% formalin solution for fifteen minutes at 20° C. The cells were subsequently washed three times with wash buffer. The nonspecific sites on the plates were blocked by 300 μl of Pierce Casein Blocker per well for two hours at 20° C.
(§8) The saturation binding assay was performed by adding 50μl of the biotinylated peptide per well at increasing concentrations. The concentration was ranging from 1 nM to 10 μM. All measurements were performed in triplicates. Peptide dilutions were prepared from 10 mM DMSO stocks in wash buffer. The plates were incubated for one hour at room temperature and subsequently washed five times with wash buffer using Titertek automatic plate washer to remove any unbound peptide. The biotinylated peptide bound to the cells was then allowed to react for thirty minutes with 50 μl of 2000× dilution of the streptavidin-Eu^3+ reagent, diluted in the Wallac reagent diluent. Finally, after washing the unbound streptavidin-Eu^3+ reagent, 50 μl of Wallac Enhancement Solution per well was added to release the free Eu^3+ from its chelate form. Free Eu^3+ rapidly forms a highly fluorescent stable chelate with the components of the Enhancement solution. […]

[3] = system: human microvascular endothelial cells (HMVEC); details: Cell Type HMVEC; for Binding Affinity: equals Bmax/Kd; for Kd: fixed cells, biotinylated peptide 1 nM to 10 μM
Description: as §1, §2, §3, §4, §5, §6, §7, §8

Substance: HTKQIPRHIYSA [1-H5]
- inhibition of angiogenesis (microvessel formation) in the aortic ring assay (in words) (chicken aortic rings): tested positive
- inhibition of angiogenesis in the Matrigel plug assay (in words) [1]: tested positive
- inhibition of angiogenesis [1]: 44%
- dose dependence of inhibition of angiogenesis ([1]; mouse Matrigel plug, three concentrations, n no less than 9): linearly proportional to the concentration

Substance: Biotin-GCHSSTWRACG (cysteine pairing not given here) [2-C10]
- Binding Affinity [2]: −5.709
- Bmax (counts/cell) [2]: 0.9694 counts/cell
- binding to AoSMC (in words) [2]: do not bind
- Bmax (counts/cell) [3]: 8.79 counts/cell
- Binding Affinity [3]: 3.83
- Kd [3]: 2290 nM
- inhibition of angiogenesis (microvessel formation) in the aortic ring assay (in words) (chicken aortic rings): tested positive
- inhibition of angiogenesis in the Matrigel plug assay (in words) [1]: tested positive

Substance: Biotin-GCMNQHSSACG (cysteine pairing not given here) [3-B5]
- Binding Affinity [2]: 85.24
- Bmax (counts/cell) [2]: 8.354 counts/cell
- Kd [2]: 98 nM
- Bmax (counts/cell) [3]: 3.817 counts/cell
- Binding Affinity [3]: 394.75
- Kd [3]: 9.7 nM

Substance: Biotin-GCTQMRTAYCG (cysteine pairing not given here) [7-D5]
- Binding Affinity [2]: 28.211
- Bmax (counts/cell) [2]: 10.8332 counts/cell
- Kd [2]: 384 nM
- binding to smooth muscle cells compared with endothelial cells [2]: binds better to smooth muscle cells than to endothelial cells
- Bmax (counts/cell) [3]: 11.0211 counts/cell
- Binding Affinity [3]: 2.3116
- Kd [3]: 4770 nM

Substance: Biotin-GCDSHKRLKCG (cysteine pairing not given here) [9-G5]
- Binding Affinity [2]: −2.127
- Bmax (counts/cell) [2]: 2.937 counts/cell
- binding to AoSMC (in words) [2]: do not bind
- Bmax (counts/cell) [3]: 10.1138 counts/cell
- Binding Affinity [3]: 19.195
- Kd [3]: 527 nM
- inhibition of angiogenesis (microvessel formation) in the aortic ring assay (in words) (chicken aortic rings): tested positive
- inhibition of angiogenesis in the Matrigel plug assay (in words) [1]: tested positive

Substance: cRGD [reference compound]
- inhibition of angiogenesis [1]: 36%

Substance: Biotin-CDCRGDCFC-OH (cysteine pairing not given here) [reference compound]
- Bmax (counts/cell) ([2]; Cell Type AoSMC): 7.18 counts/cell
- Binding Affinity ([2]; Cell Type AoSMC, equals Bmax/Kd): 28.725
- Kd ([2]; Cell Type AoSMC, fixed cells, biotinylated peptide 1 nM to 10 μM): 250 nM

Substance: Biotin-GCPTPHSGTCG (cysteine pairing not given here) [2-G9]
- Binding Affinity [2]: 57.639
- Bmax (counts/cell) [2]: 8.519 counts/cell
- Kd [2]: 148 nM
- Bmax (counts/cell) [3]: 5.15 counts/cell
- Binding Affinity [3]: 166.12
- Kd [3]: 31 nM
- inhibition of angiogenesis (microvessel formation) in the aortic ring assay (in words) (chicken aortic rings): tested positive
- inhibition of angiogenesis in the Matrigel plug assay (in words) [1]: tested positive
- inhibition of angiogenesis [1]: 57%

From US20030166004A1, “Endothelial-cell binding peptides for diagnosis and therapy” (priority 2001, published 2003)
